Reference: article PMC10503797, “Allosteric modulator potentiates β2AR agonist–promoted bronchoprotection in asthma models” (The Journal of Clinical Investigation, 2023)
Values joined by “and” are separate entries in the source; they are usually repeats but may differ in a detail not shown here. Equal values may be shown once.

Biological target: guinea pig β2AR (Cavia porcellus, UniProt Q8K4Z4)
Assay: 125I-CYP radioligand competition binding, guinea pig β2AR

Chain of guinea pig β2AR (Q8K4Z4 whole entry): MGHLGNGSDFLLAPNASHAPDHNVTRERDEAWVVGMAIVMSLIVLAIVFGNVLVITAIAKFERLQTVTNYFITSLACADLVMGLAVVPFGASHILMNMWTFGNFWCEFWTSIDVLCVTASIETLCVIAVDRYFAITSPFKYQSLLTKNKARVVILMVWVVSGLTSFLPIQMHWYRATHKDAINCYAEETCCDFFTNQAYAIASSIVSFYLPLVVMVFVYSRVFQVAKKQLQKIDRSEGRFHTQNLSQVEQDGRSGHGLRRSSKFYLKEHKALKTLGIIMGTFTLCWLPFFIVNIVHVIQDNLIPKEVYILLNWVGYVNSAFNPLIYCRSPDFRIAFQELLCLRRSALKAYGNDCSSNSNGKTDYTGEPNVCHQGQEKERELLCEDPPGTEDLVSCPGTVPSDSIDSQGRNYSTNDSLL

125I-CYP binding, Alb competition curve (Figure 4E) (Cmpd-6 [25 uM], Log [Alb] (M) -4.49485): 2.733 and 2.385 and 4.038 and 2.554 | 125I-CYP binding, Alb competition curve (Figure 4E) (Cmpd-6 [25 uM], Log [Alb] (M) -5.09691): 4.618 and 4.73 and 8.896 and 4.926 | 125I-CYP binding, FEN competition curve (Figure 4D) (Cmpd-6 [25 uM], Log [FEN] (M) -4.49485): 1.409 and 1.866 and 2.061 and 1.201 | 125I-CYP binding, Salm competition curve (Figure 4F) (Cmpd-6 [25 uM], Log [Salm] (M) -5.09691): 4.291 and 4.483 and 7.953 and 4.185
Structure (SMILES): COc1ccc(Sc2ccc(S(=O)(=O)N(C)C(C)C)cc2C(=O)N[C@H](CC(N)=O)Cc2ccc(C(C)(C)C)cc2)cc1 [Cmpd-6]
125I-CYP binding, ISO competition curve (Figure 4B) (Cmpd-6 [5 uM], Log [ISO] (M) -7.50515): 44.1147 and 80.7404 and 64.2013 and 72.7308 and 72.5102 | 125I-CYP binding, ISO competition curve (Figure 4B) (Cmpd-6 [5 uM], Log [ISO] (M) -8.70927): 91.2908 and 98.8095 and 98.5241 and 100.522 and 98.3672 | 125I-CYP binding, ISO competition curve (Figure 4B) (Cmpd-6 [5 uM], Log [ISO] (M) -9.31133): 97.2169 and 98.4924 and 100.303 and 100.814 and 103.36 | 125I-CYP binding, ISO competition curve (Figure 4B) (Cmpd-6 [5 uM], Log [ISO] (M) -9.91339): 98.5199 and 97.6422 and 100.698 and 101.104 and 99.2184 | 125I-CYP binding, ISO competition curve (Figure 4B) (Cmpd-6 [5 uM], Log [ISO] (M) -11 (DMSO)): 103.509 and 97.6444 and 99.5117 and 98.3736 and 96.5817 | 125I-CYP binding, Alb competition curve (Figure 4E) (Cmpd-6 [25 uM], Log [Alb] (M) -6.30103): 28.5337 and 34.114 and 50.4761 and 33.3615 | 125I-CYP binding, Alb competition curve (Figure 4E) (Cmpd-6 [25 uM], Log [Alb] (M) -6.90309): 59.5755 and 62.9432 and 76.3108 and 62.8869 | 125I-CYP binding, Alb competition curve (Figure 4E) (Cmpd-6 [25 uM], Log [Alb] (M) -7.50515): 81.8149 and 87.2785 and 93.3109 and 87.5413 | 125I-CYP binding, Alb competition curve (Figure 4E) (Cmpd-6 [25 uM], Log [Alb] (M) -8.10721): 96.1096 and 95.2866 and 96.5894 and 97.0774 | 125I-CYP binding, Alb competition curve (Figure 4E) (Cmpd-6 [25 uM], Log [Alb] (M) -8.70927): 98.1238 and 100.926 and 100.115 and 99.527 | 125I-CYP binding, Alb competition curve (Figure 4E) (Cmpd-6 [25 uM], Log [Alb] (M) -9.31133): 102.128 and 99.4951 and 103.592 and 101.926 | 125I-CYP binding, Alb competition curve (Figure 4E) (Cmpd-6 [25 uM], Log [Alb] (M) -9.91339): 98.9354 and 102.792 and 101.444 and 100.327 | 125I-CYP binding, Alb competition curve (Figure 4E) (Cmpd-6 [25 uM], Log [Alb] (M) -11 (DMSO)): 100.906 and 97.7704 and 98.4446 and 97.5175 | 125I-CYP binding, FEN competition curve (Figure 4D) (Cmpd-6 [25 uM], Log [FEN] (M) -6.90309): 30.825 and 36.7624 and 55.798 and 36.3648 | 125I-CYP binding, FEN competition curve (Figure 4D) (Cmpd-6 [25 uM], Log [FEN] (M) -7.50515): 56.6182 and 66.5595 and 80.6389 and 63.8444 | 125I-CYP binding, FEN competition curve (Figure 4D) (Cmpd-6 [25 uM], Log [FEN] (M) -8.10721): 85.2358 and 86.7408 and 95.8272 and 89.5788 | 125I-CYP binding, FEN competition curve (Figure 4D) (Cmpd-6 [25 uM], Log [FEN] (M) -8.70927): 93.1548 and 97.3369 and 100.273 and 95.4081 | 125I-CYP binding, FEN competition curve (Figure 4D) (Cmpd-6 [25 uM], Log [FEN] (M) -9.31133): 99.631 and 100.281 and 99.1957 and 101.634 | 125I-CYP binding, FEN competition curve (Figure 4D) (Cmpd-6 [25 uM], Log [FEN] (M) -9.91339): 99.9681 and 102.324 and 101.127 and 101.353 | 125I-CYP binding, FEN competition curve (Figure 4D) (Cmpd-6 [25 uM], Log [FEN] (M) -11 (DMSO)): 101.956 and 98.6366 and 99.5621 and 98.3857 | 125I-CYP binding, ISO competition curve (Figure 4B) (Cmpd-6 [25 uM], Log [ISO] (M) -5.09691): 1.411 and 1.274 and 2.38 and 2.249 and 1.1946 | 125I-CYP binding, ISO competition curve (Figure 4B) (Cmpd-6 [25 uM], Log [ISO] (M) -6.90309): 12.3266 and 14.2939 and 23.2433 and 22.4081 and 20.0289 | 125I-CYP binding, ISO competition curve (Figure 4B) (Cmpd-6 [25 uM], Log [ISO] (M) -7.50515): 28.0286 and 51.334 and 48.5832 and 48.3069 and 46.746 | 125I-CYP binding, ISO competition curve (Figure 4B) (Cmpd-6 [25 uM], Log [ISO] (M) -8.70927): 84.2583 and 93.8004 and 93.7052 and 91.4625 and 91.5747 | 125I-CYP binding, ISO competition curve (Figure 4B) (Cmpd-6 [25 uM], Log [ISO] (M) -9.31133): 94.8589 and 99.2775 and 101.069 and 99.6071 and 99.1245 | 125I-CYP binding, ISO competition curve (Figure 4B) (Cmpd-6 [25 uM], Log [ISO] (M) -9.91339): 97.1607 and 99.3939 and 99.6796 and 99.8936 and 100.155 | 125I-CYP binding, ISO competition curve (Figure 4B) (Cmpd-6 [25 uM], Log [ISO] (M) -11 (DMSO)): 103.398 and 98.8874 and 98.4421 and 101.926 and 100.783 | 125I-CYP binding, Salm competition curve (Figure 4F) (Cmpd-6 [25 uM], Log [Salm] (M) -5.69897): 11.1208 and 11.4804 and 19.9536 and 11.286 | 125I-CYP binding, Salm competition curve (Figure 4F) (Cmpd-6 [25 uM], Log [Salm] (M) -6.30103): 31.3057 and 32.3004 and 47.2072 and 32.0545 | 125I-CYP binding, Salm competition curve (Figure 4F) (Cmpd-6 [25 uM], Log [Salm] (M) -6.90309): 67.1995 and 66.2422 and 79.0931 and 66.807 | 125I-CYP binding, Salm competition curve (Figure 4F) (Cmpd-6 [25 uM], Log [Salm] (M) -7.50515): 88.5873 and 88.904 and 95.0429 and 88.3948 | 125I-CYP binding, Salm competition curve (Figure 4F) (Cmpd-6 [25 uM], Log [Salm] (M) -8.10721): 97.9774 and 97.2972 and 97.374 and 97.0377 | 125I-CYP binding, Salm competition curve (Figure 4F) (Cmpd-6 [25 uM], Log [Salm] (M) -8.70927): 99.3713 and 100.399 and 100.671 and 100.779 | 125I-CYP binding, Salm competition curve (Figure 4F) (Cmpd-6 [25 uM], Log [Salm] (M) -9.31133): 100.672 and 102.486 and 99.6753 and 100.402 | 125I-CYP binding, Salm competition curve (Figure 4F) (Cmpd-6 [25 uM], Log [Salm] (M) -9.91339): 96.4457 and 99.6997 and 100.705 and 99.5228 | 125I-CYP binding, Salm competition curve (Figure 4F) (Cmpd-6 [25 uM], Log [Salm] (M) -11 (DMSO)): 100.872 and 95.2897 and 98.0192 and 98.0519
